Reference: patent US20260232666A1, “COMPOSITIONS AND METHODS FOR INHIBITION OF RAS” (TheRas, Inc., priority 2023, published 2026)

system: pERK in NCI-H358 cells; assay: Cell-based pERK HTRF assay (pERK inhibition in H358 cells); conditions: Homo sapiens, NCI-H358, 0.5 h, 30 min incubation
How it was run: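 NCI-H358 cells were seeded at 4×10^4 cells/well in RPMI/10% FBS, then treated next day for 30 min at 0.25% DMSO (9-point, 3-fold series from 75 μM). Lysates were read by HTRF (d2/Eu cryptate antibody pair, 615 nm emission) after 4–24 h at room temperature to give pERK IC50.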

SMILES | IC50
C=CC(=O)N1C[C@H](N(C)c2nc(OC[C@@]34CCCN3C[C@H](F)C4)nc3cc(-c4ccc(F)c5sc(N)c(C#N)c45)c(F)cc23)C[C@H]1C [Compound 148] | < 100 nM
C=CC(=O)N1CC[C@@H](N(CC)c2nc(OC[C@@]34CCCN3C[C@H](OC)C4)nc3cc(-c4ccc(F)c5sc(N)c(C#N)c45)c(F)cc23)[C@H]1C [Compound 149] | < 100 nM
C=CC(=O)N1CC[C@@H](N(CC)c2nc(OC[C@@]34CCCN3C[C@H](OC)C4)nc3c(F)c(-c4ccc(F)c5sc(N)c(C#N)c45)c(C(F)(F)F)cc23)[C@H]1C [Compound 150] | < 100 nM
C=CC(=O)N1CC[C@@H](N(C)c2nc(OC[C@@]34CCCN3C[C@H](OC)C4)nc3c(F)c(-c4ccc(F)c5sc(N)c(C#N)c45)c(C(F)(F)F)cc23)[C@H]1C [Compound 151] | < 100 nM
C=CC(=O)N1C[C@H](N(C)c2nc(OC[C@@H]3CCCN3C)nc3c(F)c(-c4ccc(F)c5sc(N)c(C#N)c45)c(C(F)(F)F)cc23)C[C@@H]1C [Compound 153] | < 100 nM
C=CC(=O)N1CC[C@@H](N(CC)c2nc(OC[C@@H]3CCCN3C)nc3c(F)c(-c4nc(N)cc(C)c4C(F)(F)F)c(C(F)(F)F)cc23)[C@H]1C [Compound 155] | < 100 nM
C=CC(=O)N1CC[C@@H](N(C)c2nc(OC[C@]34CCCN3C[C@H](OC)C4)nc3c(F)c(-c4ccc(F)c5sc(N)c(C#N)c45)c(C(F)(F)F)cc23)[C@H]1C [Compound 156] | < 100 nM
C=CC(=O)N1CC[C@@H](N(CC)c2nc(OC[C@]34CCCN3C[C@H](OC)C4)nc3c(F)c(-c4ccc(F)c5sc(N)c(C#N)c45)c(C(F)(F)F)cc23)[C@H]1C [Compound 158] | < 100 nM
C=CC(=O)N1CC[C@@H](N(CC)c2nc(OC[C@]34CCCN3C[C@H](F)C4)nc3c(F)c(-c4ccc(F)c5sc(N)c(C#N)c45)c(C(F)(F)F)cc23)[C@H]1C [Compound 159] | < 100 nM
C=CC(=O)N1CC[C@@H](N(C)c2nc(OC[C@]34CCCN3C[C@H](OC)C4)nc3c(F)c(-c4ccc(F)c5sc(N)c(C#N)c45)c(Cl)cc23)[C@H]1C [Compound 161] | < 100 nM
C=CC(=O)N1CC[C@@H](N(CC)c2nc(OC[C@@]34CCCN3C[C@H](OC)C4)nc3c(F)c(-c4ccc(F)c5sc(N)c(C#N)c45)c(Cl)cc23)[C@H]1C [Compound 163] | < 100 nM
C=CC(=O)N1CC[C@@H](N(CC)c2nc(OC[C@]34CCCN3C[C@H](OC)C4)nc3c(F)c(-c4ccc(F)c5sc(N)c(C#N)c45)c(Cl)cc23)[C@H]1C [Compound 164] | < 100 nM
C=CC(=O)N1CC[C@@H](N(CC)c2nc(OC[C@]34CCCN3C[C@H](F)C4)nc3c(F)c(-c4ccc(F)c5sc(N)c(C#N)c45)c(Cl)cc23)[C@H]1C [Compound 165] | < 100 nM
C=CC(=O)N1CC[C@@H](N(CC)c2nc(OC[C@]34CCCN3C[C@H](F)C4)nc3cc(-c4ccc(F)c5sc(N)c(C#N)c45)c(F)cc23)[C@H]1C [Compound 167] | < 100 nM
C=CC(=O)N1CC[C@@H](N(CC)c2nc(OC[C@]34CCCN3C[C@H](OC)C4)nc3c(F)c(-c4ccc(F)c5sc(N)c(C#N)c45)ccc23)[C@H]1C [Compound 169] | 100 to 1000 nM

target: T1, GppNHp-loaded KRAS4b (amino acids 1-169) G12C/C118S protein (Homo sapiens, UniProt P01116, C118S/G12C); assay: Covalent cysteine 12 modification by MALDI-TOF MS, GppNHp-loaded KRAS G12C; assay type: binding; conditions: 15 minutes reaction time point
T1 construct: KRAS4b (amino acids 1-169) G12C/C118S protein; made in house
How it was run: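 Covalent adduct formation measured by linear-mode MALDI-TOF MS as modified peak height over summed peak heights, 15 min time point reported. Reactions: KRAS4b 1-169 G12C/C118S (1 μM, loaded with GppNHp, GTP or GDP) plus compound at 1:2.5 ratio, pH 7.3 HEPES/NaCl/MgCl2, room temperature.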

SMILES | GppNHp-KRAS G12C percent of modification
C=CC(=O)N1C[C@H](N(C)c2nc(OC[C@@]34CCCN3C[C@H](F)C4)nc3cc(-c4ccc(F)c5sc(N)c(C#N)c45)c(F)cc23)C[C@H]1C [Compound 148] | A (percent of modification ≥70%)
C=CC(=O)N1CC[C@@H](N(CC)c2nc(OC[C@@]34CCCN3C[C@H](OC)C4)nc3cc(-c4ccc(F)c5sc(N)c(C#N)c45)c(F)cc23)[C@H]1C [Compound 149] | A (percent of modification ≥70%)
C=CC(=O)N1CC[C@@H](N(CC)c2nc(OC[C@@]34CCCN3C[C@H](OC)C4)nc3c(F)c(-c4ccc(F)c5sc(N)c(C#N)c45)c(C(F)(F)F)cc23)[C@H]1C [Compound 150] | A (percent of modification ≥70%)
C=CC(=O)N1CC[C@@H](N(C)c2nc(OC[C@@]34CCCN3C[C@H](OC)C4)nc3c(F)c(-c4ccc(F)c5sc(N)c(C#N)c45)c(C(F)(F)F)cc23)[C@H]1C [Compound 151] | A (percent of modification ≥70%)
C=CC(=O)N1C[C@H](N(C)c2nc(OC[C@@H]3CCCN3C)nc3c(F)c(-c4ccc(F)c5sc(N)c(C#N)c45)c(C(F)(F)F)cc23)C[C@@H]1C [Compound 153] | A (percent of modification ≥70%)
C=CC(=O)N1CC[C@@H](N(CC)c2nc(OC[C@@H]3CCCN3C)nc3c(F)c(-c4nc(N)cc(C)c4C(F)(F)F)c(C(F)(F)F)cc23)[C@H]1C [Compound 155] | C (10%≤percent of modification <50%)
C=CC(=O)N1CC[C@@H](N(C)c2nc(OC[C@]34CCCN3C[C@H](OC)C4)nc3c(F)c(-c4ccc(F)c5sc(N)c(C#N)c45)c(C(F)(F)F)cc23)[C@H]1C [Compound 156] | A (percent of modification ≥70%)
C=CC(=O)N1CC[C@@H](N(CC)c2nc(OC[C@]34CCCN3C[C@H](OC)C4)nc3c(F)c(-c4ccc(F)c5sc(N)c(C#N)c45)c(C(F)(F)F)cc23)[C@H]1C [Compound 158] | A (percent of modification ≥70%)
C=CC(=O)N1CC[C@@H](N(CC)c2nc(OC[C@]34CCCN3C[C@H](F)C4)nc3c(F)c(-c4ccc(F)c5sc(N)c(C#N)c45)c(C(F)(F)F)cc23)[C@H]1C [Compound 159] | A (percent of modification ≥70%)
C=CC(=O)N1CC[C@@H](N(C)c2nc(OC[C@]34CCCN3C[C@H](OC)C4)nc3c(F)c(-c4ccc(F)c5sc(N)c(C#N)c45)c(Cl)cc23)[C@H]1C [Compound 161] | A (percent of modification ≥70%)
C=CC(=O)N1CC[C@@H](N(CC)c2nc(OC[C@@]34CCCN3C[C@H](OC)C4)nc3c(F)c(-c4ccc(F)c5sc(N)c(C#N)c45)c(Cl)cc23)[C@H]1C [Compound 163] | A (percent of modification ≥70%)
C=CC(=O)N1CC[C@@H](N(CC)c2nc(OC[C@]34CCCN3C[C@H](OC)C4)nc3c(F)c(-c4ccc(F)c5sc(N)c(C#N)c45)c(Cl)cc23)[C@H]1C [Compound 164] | A (percent of modification ≥70%)
C=CC(=O)N1CC[C@@H](N(CC)c2nc(OC[C@]34CCCN3C[C@H](F)C4)nc3c(F)c(-c4ccc(F)c5sc(N)c(C#N)c45)c(Cl)cc23)[C@H]1C [Compound 165] | A (percent of modification ≥70%)
C=CC(=O)N1CC[C@@H](N(CC)c2nc(OC[C@]34CCCN3C[C@H](F)C4)nc3cc(-c4ccc(F)c5sc(N)c(C#N)c45)c(F)cc23)[C@H]1C [Compound 167] | A (percent of modification ≥70%)
C=CC(=O)N1CC[C@@H](N(CC)c2nc(OC[C@]34CCCN3C[C@H](OC)C4)nc3c(F)c(-c4ccc(F)c5sc(N)c(C#N)c45)ccc23)[C@H]1C [Compound 169] | A (percent of modification ≥70%)
